Patent US20230293535A1, “ERBB/BTK INHIBITORS” (Dizal (Jiangsu) Pharmaceutical Co., Ltd., priority 2018, published 2023)
pIC50: −log10 of the molar value. Counter-ions that a name gives are not always drawn. Like-named read-outs stand apart in the source and are kept apart here.

Key:
Format in all cases: cell-based
OCI-LY-10 cells = assay: BTK (wt) cell proliferation, OCI-LY-10 (CellTiter-Glo, 72 h); conditions: Homo sapiens, OCI-Ly10, 72 h, read-out: BTK WT OCI-LY-10 GI50;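 note: viable cells quantified via cellular ATP luminescence, proliferation given as percent of DMSO control after subtracting a duplicate plate read at time of dosing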
Ri-1 cells = assay: BTK (wt) cell proliferation, Ri-1 (CellTiter-Glo, 72 h); conditions: Ri-1, 72 h, read-out: BTK WT Ri-1 GI50;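 note: viable cells quantified as cellular ATP luminescence, proliferation normalized to a time-zero plate and the DMSO control, compounds tested across a dilution series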
Ba/F3 EGFR NPH ins cells = assay: Cell proliferation, Ba/F3 EGFR NPH ins (CellTiter-Glo, 72 h); conditions: Ba/F3 EGFR, 72 h;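 note: IL3-independent cells carrying constitutively phosphorylated EGFR, compound dilution series, viable cells quantified by ATP luminescence, growth relative to DMSO wells after subtracting pre-dosing (day 0) baseline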
[1] = system: NCI-H1975 EGFR L858R/T790M cells; assay: Cell proliferation, NCI-H1975 EGFR L858R/T790M (CellTiter-Glo, 72 h); conditions: Homo sapiens, NCI-H1975, 72 h;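 note: viable cells quantified by luciferase-based ATP luminescence, proliferation expressed relative to DMSO-treated wells (100%) after subtracting a parallel plate read at the time of dosing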
DB cells = assay: BTK (wt) cell proliferation, DB (CellTiter-Glo, 72 h); conditions: Homo sapiens, DB, read-out: Non-BCR activated DB GI50;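 note: DB cells in 384-well plates given a dilution series of compound, viable cells read by ATP luminescence, growth expressed versus DMSO control after subtracting a time-zero plate reading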
Ba/F3 EGFR ASV ins cells = assay: Cell proliferation, Ba/F3 EGFR ASV ins (CellTiter-Glo, 72 h); conditions: Ba/F3 EGFR, 72 h;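 note: IL3-independent Ba/F3 cells transduced with EGFR V769_D770insASV, cellular ATP luminescence after compound exposure, growth relative to DMSO control with the day-0 baseline reading subtracted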
Procedure: (§1) WT or mutant cells were seeded in 384 well plates at appropriate concentrations with corresponding growth media supplemented with 10% FBS, for each experiment, identical plates were prepared in duplicates, and the plates were incubated overnight. On the next day, one of each duplicated plates was dosed with tested compounds at a series of concentrations, and another one of the duplicated plate was analysied for G0 value. The dosed plates were incubate for another 72 h at 37° C. with 5% CO2 and the number of viable cells in each well of the G0 plates or the dosed plates were measured by CellTiter-Glo® Luminescent Cell Viability Assay (Promega). This assay is a luminescent method for determining the number viable cells through measurement of cellular ATP concentration by detection of luciferase activity. Detection reagents (15 µl) was dispensed into per well, and the plates were incubate for 30 min at room temperature. Then, the luminescence in each well was measured using the Envision plate reader (PerkinElmer). The percentage of proliferation was calculated based on the formula: %Proliferation= 100 × (G3 value of sample well-Go value)/(G3 value of DMSO control-Go value).

[2] = system: Her2 exon 20 insertion YVMA transduced NIH-3T3 cell line; assay: Cell proliferation, Her2 YVMAins NIH-3T3 (CellTiter-Glo, 72 h); conditions: Mus musculus, NIH3T3, 72 h;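 note: viable cells quantified by ATP luminescence, growth over a day-zero baseline plate expressed as percent of DMSO control growth, compound dilution series in 10% FBS medium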
Procedure: as §1

TMD-8 cells = assay: BTK (wt) cell proliferation, TMD-8 (CellTiter-Glo, 72 h); conditions: Homo sapiens, TMD8, 72 h, read-out: BTK WT TMD-8 GI50;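 note: viable cells quantified by ATP-based luminescence, proliferation expressed as percent of DMSO control after subtracting a time-zero baseline plate read at dosing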
WT EGFR cell line A-431 = assay: Cell proliferation, WT EGFR A431 (CellTiter-Glo, 72 h); conditions: Homo sapiens, A-431, 72 h;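 note: proliferation from a luminescent ATP viability signal, expressed as 100 × (treated minus time-zero plate) over (DMSO control minus time-zero plate), cells grown with 10% FBS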
Procedure: as §1

[3] = target: T1, human EGFR exon 20 H773_V774insNPH (Homo sapiens, UniProt P00533, INS773NPH); assay: EGFR Exon20 NPH insertion cellular phosphorylation inhibition (MSD pEGFR Y1068/total EGFR); conditions: Ba/F3 EGFR NPH ins cells, 4 h compound, p-EGFR(Y1068)/total EGFR;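 note: IL3-independent Ba/F3 cells with constitutively phosphorylated EGFR, compound exposure at 37 °C under 5% CO2, electrochemiluminescent MSD measurement of the p-EGFR to total EGFR ratio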
T1 construct: host or cells: Ba/F3
Procedure: One day before the test, WT or mutant cells were seeded in 96 well plates at appropriate concentrations with corresponding growth media supplemented with 1% FBS, and incubated overnight. The next day, tested compounds at a series of concentrations were added into each individual well of the plates, and the plates were incubated for 4 h at 37° C. with 5% CO2.
The EGFR (Y1068) phosphorylation level (activity) of cells in each well were then measured with MSD kit named “MULTI-SPOT®96 4-Spot HB Prototype EGFR Triplex [sequence]: pEGFR(Tyr1068),pEGFR(Tyr1173), Total EGFR” according to the manufacturer’s instruction (MESO SCALE DISCOVERY, Cat# N45ZB-1). The assay is an electrochemiluminescent method for determining both phosphorylated and total EGFR of cells with an MSD SECTOR® Imager and the ratio of p-EGFR/total EGFR can be generated by the machine.

[4] = target: T2, human Her2 exon 20 insertion mutation YVMA (Homo sapiens, UniProt P04626, INS775YVMA); assay: Her2 Exon 20 YVMA insertion cellular phosphorylation inhibition (MSD p-Her2 Y1248/total Her2); conditions: Her2 YVMAins cells, 4 h compound;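 note: lentivirally transduced NIH-3T3 cells in 1% FBS medium, electrochemiluminescent MSD read-out, graded compound concentrations at 37 °C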
T2 construct: expressed in transfected cells; host or cells: NIH-3T3, lentiviral transduction, puromycin selection

[5] = target: T3, human EGFR exon 20 V769_D770insASV (Homo sapiens, UniProt P00533, INS769ASV); assay: EGFR Exon20 ASV insertion cellular phosphorylation inhibition (MSD pEGFR Y1068/total EGFR); conditions: Ba/F3 EGFR ASV ins cells, 4 h compound, p-EGFR(Y1068)/total EGFR;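 note: electrochemiluminescent readout on an MSD SECTOR Imager, IL3-independent transduced cells in medium with 1% FBS, compound concentration series at 37 °C and 5% CO2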
T3 construct: expressed in transfected cells; host or cells: Ba/F3 (DSMZ ACC-300), lentiviral transduction, puromycin selection, IL3 depletion

EGFR L858R&T790M = target: T4, EGFR L858R&T790M (Homo sapiens, UniProt P00533, L858R/T790M); assay: EGFR L858R and T790M cellular phosphorylation inhibition in NCI-H1975 (MSD); conditions: NCI-H1975 cells, 4 h compound, p-EGFR(Y1068)/total EGFR; read-out: EGFR L858R and T790M mutation IC50;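 note: phosphorylated and total EGFR detected by electrochemiluminescence, cells exposed to compound in medium containing 1% FBS at 37 °C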
T4 construct: host or cells: NCI-H1975

[6] = read-out: EGFR Exon20 NPH insertion GI50 (nM)
[7] = read-out: EGFR L858R and T790M mutation GI50 (nM)
[8] = read-out: EGFR Exon20 ASV insertion GI50 (nM)
[9] = read-out: Her2 Exon 20 YVMA insertion GI50 (nM)
[10] = read-out: EGFR WT A431 GI50 (nM)
[11] = OCI-LY-10 cells, 72 h, CellTiter-Glo
[12] = Ri-1 cells, 72 h, CellTiter-Glo
[13] = Ba/F3 EGFR NPH ins, 72 h proliferation, read-out: EGFR Exon20 NPH insertion GI50
[14] = NCI-H1975, 72 h proliferation, read-out: EGFR L858R and T790M mutation GI50
[15] = Ba/F3 EGFR ASV ins, 72 h proliferation, read-out: EGFR Exon20 ASV insertion GI50
[16] = Her2 YVMAins cells, 72 h proliferation, read-out: Her2 Exon 20 YVMA insertion GI50
[17] = TMD-8 cells, 72 h, CellTiter-Glo
[18] = A431, 72 h proliferation, read-out: EGFR WT A431 GI50

T1 sequence (P00533 with tags, fused parts or gaps INS773NPH): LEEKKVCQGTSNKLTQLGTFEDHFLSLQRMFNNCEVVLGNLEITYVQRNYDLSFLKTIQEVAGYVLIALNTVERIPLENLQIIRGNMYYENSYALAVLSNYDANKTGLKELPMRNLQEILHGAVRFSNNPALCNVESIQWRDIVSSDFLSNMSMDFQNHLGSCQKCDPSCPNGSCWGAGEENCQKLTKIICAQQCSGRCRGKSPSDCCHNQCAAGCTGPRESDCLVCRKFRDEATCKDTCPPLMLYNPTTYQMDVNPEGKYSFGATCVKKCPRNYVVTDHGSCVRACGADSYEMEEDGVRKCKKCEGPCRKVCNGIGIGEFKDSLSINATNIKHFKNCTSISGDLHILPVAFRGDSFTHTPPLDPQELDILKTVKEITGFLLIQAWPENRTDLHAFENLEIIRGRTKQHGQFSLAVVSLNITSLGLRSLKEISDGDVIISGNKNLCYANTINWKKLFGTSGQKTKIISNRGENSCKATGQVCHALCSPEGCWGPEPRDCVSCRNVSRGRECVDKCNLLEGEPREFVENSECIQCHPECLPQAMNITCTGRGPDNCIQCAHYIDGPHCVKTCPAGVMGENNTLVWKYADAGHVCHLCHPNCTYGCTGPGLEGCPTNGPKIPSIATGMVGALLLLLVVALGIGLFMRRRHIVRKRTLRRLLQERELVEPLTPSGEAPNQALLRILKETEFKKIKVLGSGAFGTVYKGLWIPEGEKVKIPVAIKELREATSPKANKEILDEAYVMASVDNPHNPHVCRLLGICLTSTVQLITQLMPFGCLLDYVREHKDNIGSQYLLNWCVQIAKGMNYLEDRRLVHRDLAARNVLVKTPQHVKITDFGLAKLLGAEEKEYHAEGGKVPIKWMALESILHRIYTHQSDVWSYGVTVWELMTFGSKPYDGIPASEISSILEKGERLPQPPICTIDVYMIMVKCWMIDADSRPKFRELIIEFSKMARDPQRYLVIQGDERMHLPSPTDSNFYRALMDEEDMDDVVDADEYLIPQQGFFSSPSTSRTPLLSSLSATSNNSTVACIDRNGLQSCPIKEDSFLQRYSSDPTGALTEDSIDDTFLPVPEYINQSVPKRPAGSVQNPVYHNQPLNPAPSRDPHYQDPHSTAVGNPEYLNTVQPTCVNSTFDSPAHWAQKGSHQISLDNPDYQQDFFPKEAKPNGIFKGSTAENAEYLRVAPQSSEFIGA
T3 sequence (P00533 with tags, fused parts or gaps INS769ASV): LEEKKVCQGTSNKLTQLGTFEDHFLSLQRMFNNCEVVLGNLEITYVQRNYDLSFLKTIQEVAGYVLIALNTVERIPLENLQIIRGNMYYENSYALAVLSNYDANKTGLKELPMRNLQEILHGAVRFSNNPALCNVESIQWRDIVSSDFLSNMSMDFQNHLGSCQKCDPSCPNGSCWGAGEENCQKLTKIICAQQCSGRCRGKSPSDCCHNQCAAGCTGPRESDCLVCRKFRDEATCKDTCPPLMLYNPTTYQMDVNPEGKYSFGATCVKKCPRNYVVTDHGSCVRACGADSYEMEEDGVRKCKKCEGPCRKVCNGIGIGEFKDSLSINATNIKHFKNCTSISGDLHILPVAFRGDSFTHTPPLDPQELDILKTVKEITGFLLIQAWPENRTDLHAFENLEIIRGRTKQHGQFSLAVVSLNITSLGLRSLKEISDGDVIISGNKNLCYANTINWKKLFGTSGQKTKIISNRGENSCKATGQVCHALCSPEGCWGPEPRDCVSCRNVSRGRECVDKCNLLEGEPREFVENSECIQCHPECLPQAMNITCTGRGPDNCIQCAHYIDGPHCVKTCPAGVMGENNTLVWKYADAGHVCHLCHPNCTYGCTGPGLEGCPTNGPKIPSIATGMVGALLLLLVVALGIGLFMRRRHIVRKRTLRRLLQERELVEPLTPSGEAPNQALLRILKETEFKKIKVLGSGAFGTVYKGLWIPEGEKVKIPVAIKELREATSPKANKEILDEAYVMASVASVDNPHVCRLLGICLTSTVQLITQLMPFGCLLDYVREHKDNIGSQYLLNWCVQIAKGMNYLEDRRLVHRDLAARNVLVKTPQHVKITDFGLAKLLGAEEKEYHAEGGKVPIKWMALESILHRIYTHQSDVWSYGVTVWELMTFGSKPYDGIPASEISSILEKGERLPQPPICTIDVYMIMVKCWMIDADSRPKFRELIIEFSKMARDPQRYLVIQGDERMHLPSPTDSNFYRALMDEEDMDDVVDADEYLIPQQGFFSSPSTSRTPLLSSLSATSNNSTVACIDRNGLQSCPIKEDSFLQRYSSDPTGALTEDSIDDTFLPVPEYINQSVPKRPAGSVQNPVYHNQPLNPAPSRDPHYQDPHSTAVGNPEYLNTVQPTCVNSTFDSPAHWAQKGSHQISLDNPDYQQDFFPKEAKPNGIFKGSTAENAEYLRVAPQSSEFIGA
T2 sequence (P04626 with tags, fused parts or gaps INS775YVMA): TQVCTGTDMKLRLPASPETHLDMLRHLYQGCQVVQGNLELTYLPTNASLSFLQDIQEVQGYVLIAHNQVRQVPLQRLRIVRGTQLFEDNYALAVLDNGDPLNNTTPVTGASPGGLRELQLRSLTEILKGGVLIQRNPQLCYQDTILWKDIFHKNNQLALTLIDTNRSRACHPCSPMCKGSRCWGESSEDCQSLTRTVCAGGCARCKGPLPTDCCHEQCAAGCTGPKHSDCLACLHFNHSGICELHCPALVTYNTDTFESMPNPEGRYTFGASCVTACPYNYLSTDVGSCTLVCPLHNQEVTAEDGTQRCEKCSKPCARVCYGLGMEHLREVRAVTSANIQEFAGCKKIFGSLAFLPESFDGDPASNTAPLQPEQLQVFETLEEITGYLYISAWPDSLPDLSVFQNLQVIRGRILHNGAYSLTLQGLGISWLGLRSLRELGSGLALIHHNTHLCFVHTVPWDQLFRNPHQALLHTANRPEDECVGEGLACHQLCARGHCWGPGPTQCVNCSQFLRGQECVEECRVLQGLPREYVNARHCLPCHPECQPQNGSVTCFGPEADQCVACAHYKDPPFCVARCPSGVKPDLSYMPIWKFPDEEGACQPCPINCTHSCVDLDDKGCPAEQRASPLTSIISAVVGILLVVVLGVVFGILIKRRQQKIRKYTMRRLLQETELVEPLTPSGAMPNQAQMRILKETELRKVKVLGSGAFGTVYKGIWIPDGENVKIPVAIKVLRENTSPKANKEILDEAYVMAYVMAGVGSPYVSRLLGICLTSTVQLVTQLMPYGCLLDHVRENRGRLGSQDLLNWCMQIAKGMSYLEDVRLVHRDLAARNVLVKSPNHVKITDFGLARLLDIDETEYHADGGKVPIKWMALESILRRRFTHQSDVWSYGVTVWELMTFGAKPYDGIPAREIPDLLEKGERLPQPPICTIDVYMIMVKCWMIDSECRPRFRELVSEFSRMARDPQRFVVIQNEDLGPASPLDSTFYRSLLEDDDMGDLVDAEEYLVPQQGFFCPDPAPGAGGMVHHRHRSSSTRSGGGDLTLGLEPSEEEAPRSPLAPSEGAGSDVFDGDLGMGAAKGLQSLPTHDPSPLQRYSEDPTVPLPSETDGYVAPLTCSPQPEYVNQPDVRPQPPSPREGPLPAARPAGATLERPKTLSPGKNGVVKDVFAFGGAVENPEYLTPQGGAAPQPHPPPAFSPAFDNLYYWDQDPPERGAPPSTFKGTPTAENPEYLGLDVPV
T4 sequence (P00533 25-1210 T790M/L858R): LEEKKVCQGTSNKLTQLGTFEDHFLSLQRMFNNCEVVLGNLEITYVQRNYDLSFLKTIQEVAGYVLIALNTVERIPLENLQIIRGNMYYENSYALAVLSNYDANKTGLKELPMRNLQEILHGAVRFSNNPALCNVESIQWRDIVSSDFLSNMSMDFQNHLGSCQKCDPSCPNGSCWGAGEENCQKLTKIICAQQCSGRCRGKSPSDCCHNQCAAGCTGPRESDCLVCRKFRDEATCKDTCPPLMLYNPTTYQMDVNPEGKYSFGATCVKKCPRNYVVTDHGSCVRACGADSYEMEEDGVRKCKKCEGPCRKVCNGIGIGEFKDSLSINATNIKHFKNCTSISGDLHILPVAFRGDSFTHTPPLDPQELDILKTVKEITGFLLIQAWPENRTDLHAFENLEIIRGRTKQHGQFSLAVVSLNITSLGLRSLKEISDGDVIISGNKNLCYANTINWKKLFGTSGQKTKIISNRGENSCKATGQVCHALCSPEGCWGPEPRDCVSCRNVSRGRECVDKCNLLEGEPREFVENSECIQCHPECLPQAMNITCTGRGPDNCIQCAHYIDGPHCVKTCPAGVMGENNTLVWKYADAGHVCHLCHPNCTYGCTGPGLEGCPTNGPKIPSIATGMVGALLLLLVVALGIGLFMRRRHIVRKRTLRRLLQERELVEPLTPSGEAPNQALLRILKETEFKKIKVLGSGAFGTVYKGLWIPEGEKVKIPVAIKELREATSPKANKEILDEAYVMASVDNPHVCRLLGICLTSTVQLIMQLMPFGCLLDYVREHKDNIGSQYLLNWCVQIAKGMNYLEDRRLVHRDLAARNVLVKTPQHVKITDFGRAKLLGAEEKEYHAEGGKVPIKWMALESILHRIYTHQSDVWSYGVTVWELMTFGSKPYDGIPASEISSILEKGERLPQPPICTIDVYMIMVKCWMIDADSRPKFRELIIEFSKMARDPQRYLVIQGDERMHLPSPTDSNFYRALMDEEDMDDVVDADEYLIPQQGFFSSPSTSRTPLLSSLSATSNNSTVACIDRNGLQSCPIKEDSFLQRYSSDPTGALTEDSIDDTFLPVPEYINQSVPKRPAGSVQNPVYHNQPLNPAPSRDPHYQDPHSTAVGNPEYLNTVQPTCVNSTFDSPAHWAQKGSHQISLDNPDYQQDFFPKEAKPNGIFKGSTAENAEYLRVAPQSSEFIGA

SMILES	pIC50 [3]	GI50 (OCI-LY-10 cells; [11]) [nM]	GI50 (Ba/F3 EGFR NPH ins cells; [13]) [nM]	pIC50 [4]	GI50 [1, 14] [nM]	pIC50 [5]	GI50 (Ba/F3 EGFR ASV ins cells; [15]) [nM]	GI50 (WT EGFR cell line A-431; [18]) [nM]	GI50 (Ri-1 cells; [12]) [nM]	GI50 (DB cells; DB cells, CellTiter-Glo) [nM]	GI50 [2, 16] [nM]	GI50 (TMD-8 cells; [17]) [nM]	other results
C=CC(=O)Nc1cc(Nc2nccc(-c3cn(C)c4ccccc34)n2)c(OC)cc1N(C)CCN(C)C [AZD9291, osimertinib, reference compound]	–	–	–	–	–	–	–	–	–	–	–	–	GI50 (OCI-LY-10 cells): 1040 nM; GI50 (Ri-1 cells): 2050 nM; GI50 (Ba/F3 EGFR NPH ins cells; [6]): 177 nM; GI50 [1, 7]: 14.5 nM; GI50 (DB cells): 1020 nM; GI50 (Ba/F3 EGFR ASV ins cells; [8]): 207 nM; GI50 [2, 9]: 294 nM; GI50 (TMD-8 cells): 1090 nM; GI50 (WT EGFR cell line A-431; [10]): 43.7 nM
CN(C)C/C=C/C(=O)Nc1cc2c(Nc3ccc(F)c(Cl)c3)ncnc2cc1O[C@H]1CCOC1 [Afatinib, reference compound]	–	–	–	–	–	–	–	–	–	–	–	–	GI50 (OCI-LY-10 cells): 1040 nM; GI50 (Ri-1 cells): 1030 nM; GI50 (DB cells): 657 nM; GI50 [2, 9]: 17.8 nM; GI50 (TMD-8 cells): 1160 nM
C=CC(=O)Nc1cc(Nc2ncnc(Nc3cnc(C)cc3C(C)(C)O)n2)c(OC)cc1N(C)CCN(C)C [Compound 6, N-(2-((2-(dimethylamino)ethyl)(methyl)amino)-5-(4-(4-(2-hydroxypropan-2-yl)-6-methylpyridin-3-ylamino)-1,3,5-triazin-2-ylamino)-4-methoxyphenyl) acrylamide]	6.42	210	625	7.01	93.7	6.72	250	64.7	289	> 3000	534	335	–
C=CC(=O)Nc1cc(Nc2ncnc(Nc3ccc(C)nc3C(C)(C)O)n2)c(OC)cc1N(C)CCN(C)C [Compound 7, N-(2-((2-(dimethylamino)ethyl)(methyl)amino)-5-(4-(2-(2-hydroxypropan-2-yl)-6-methylpyridin-3-ylamino)-1,3,5-triazin-2-ylamino)-4-methoxyphenyl) acrylamide]	7.33	130	212	7.71	25	7.39	145	37.9	> 3000	> 3000	161	188	–
C=CC(=O)Nc1cc(Nc2ncnc(Nc3ccccc3C3(O)COC3)n2)c(OC)cc1N(C)CCN(C)C [Compound 10, N-(2-((2-(dimethylamino)ethyl)(methyl)amino)-5-(4-(2-(3-hydroxyoxetan-3-yl)phenylamino)-1,3,5-triazin-2-ylamino)-4-methoxyphenyl)acrylamide]	6.92	> 3000	189	6.64	76.3	7.13	198	79.4	> 3000	> 3000	274	> 3000	–
C=CC(=O)Nc1cc(Nc2ncnc(Nc3ccc(C(F)(F)F)cc3C(C)(C)O)n2)c(OC)cc1N(C)CCN(C)C [Compound 13, N-(2-((2-(dimethylamino)ethyl)(methyl)amino)-5-(4-(2-(2-hydroxypropan-2-yl)-4-(trifluoromethyl)phenylamino)-1,3,5-triazin-2-ylamino)-4-methoxyphenyl)acrylamide]	7.40	54.5	76.5	7.44	15.3	7.64	53.3	22.5	120	> 3000	156	56.3	–
C=CC(=O)Nc1cc(Nc2nccc(Nc3cc(Cl)c(F)cc3C(C)(C)O)n2)c(OC)cc1N(C)C[C@H]1C[C@H](C)CN1C [Compound 90, N-(5-(4-(5-chloro-4-fluoro-2-(2-hydroxypropan-2-yl)phenylamino)pyrimidin-2-ylamino)-2-((((2R,4S)-1,4-dimethylpyrrolidin-2-yl)methyl)(methyl)amino)-4-methoxyphenyl) acrylamide formic acid salt]	7.51	82.7	–	7.56	–	7.24	–	–	83.8	> 3000	284	45	GI50 (Ba/F3 EGFR NPH ins cells; [6]): 76.4 nM; GI50 [1, 7]: 6.1 nM; GI50 (Ba/F3 EGFR ASV ins cells; [8]): 83.1 nM; GI50 (WT EGFR cell line A-431; [10]): 59.4 nM
CCOc1cc2ncc(C#N)c(Nc3ccc(OCc4ccccn4)c(Cl)c3)c2cc1NC(=O)/C=C/CN(C)C [Neratinib, reference compound]	–	–	–	–	–	–	–	–	–	–	–	–	GI50 (Ba/F3 EGFR NPH ins cells; [6]): 700 nM; GI50 [1, 7]: 110 nM; GI50 (Ba/F3 EGFR ASV ins cells; [8]): 88 nM; GI50 [2, 9]: 5.2 nM; GI50 (WT EGFR cell line A-431; [10]): 15.9 nM

Further lines, with some results ahead:

pIC50 [3]	GI50 (OCI-LY-10 cells; [11]) [nM]	GI50 (Ba/F3 EGFR NPH ins cells; [13]) [nM]	pIC50 [4]	GI50 [1, 14] [nM]	pIC50 [5]	GI50 (Ba/F3 EGFR ASV ins cells; [15]) [nM]	GI50 (WT EGFR cell line A-431; [18]) [nM]	SMILES	GI50 (Ri-1 cells; [12]) [nM]	GI50 (DB cells; DB cells, CellTiter-Glo) [nM]	GI50 [2, 16] [nM]	GI50 (TMD-8 cells; [17]) [nM]	other results
7.19	324	142	7.31	23	7.52	101	55.5	C=CC(=O)Nc1cc(Nc2ncnc(Nc3cc(F)c(F)cc3C(C)(C)O)n2)c(OC)cc1N(C)CCN1CCCCC1 [Compound 24]	415	> 3000	303	107	–
–	6.2	60	7.71	1.4	–	35.7	21.5	C=CC(=O)Nc1cc(Nc2ncc(Cl)c(Nc3cc(Cl)c(F)cc3C(C)(C)O)n2)c(OC)cc1N(C)CCN(C)C [Compound 78, N-(5-(5-chloro-4-(5-chloro-4-fluoro-2-(2-hydroxypropan-2-yl)phenylamino)pyrimidin-2-ylamino)-2-((2-(dimethylamino)ethyl)(methyl)amino)-4-methoxyphenyl)acrylamide]	77.8	> 3000	49.2	10.3	–
7.09	–	136	6.52	4.6	–	149	35.7	C=CC(=O)Nc1cc(Nc2ncc(OC)c(Nc3cc(Cl)c(F)cc3C(C)(C)O)n2)c(OC)cc1N(C)CCN(C)C [Compound 81, N-(5-(4-(5-chloro-4-fluoro-2-(2-hydroxypropan-2-yl)phenylamino)-5-methoxypyrimidin-2-ylamino)-2-((2-(dimethylamino)ethyl)(methyl)amino)-4-methoxyphenyl)acrylamide]	–	–	354	–	pIC50 (EGFR L858R&T790M): 8.96
–	235	491	6.93	42.5	–	502	265	Cc1cc(C(=O)Nc2nc3cccc(Cl)c3n2[C@@H]2CCCCN(C(=O)/C=C/CN(C)C)C2)ccn1 [EGF816, reference compound]	897	> 3000	242	166	–
–	1000	7.2	9.10	19.4	–	4.1	0.5	C=CC(=O)N1CCC(Oc2cc3c(Nc4ccc(Cl)c(Cl)c4F)ncnc3cc2OC)CC1 [Poziotinib, reference compound]	1230	> 3000	4.7	2410	–
